Where two headings read alike, the source gives them in different places.
Key:
[1] = molecular target: T1, Ba/F3-FGFR1-transfected cells (Homo sapiens, UniProt P11362, cells depend on it, form not given); experiment: Ba/F3-FGFR1 (minus IL3 or plus IL3) cellular proliferation assay, Alamar Blue; format: cell-based; settings: minus IL3, 24 hours
T1 construct: other: minus IL3; 24 hours, Alamar Blue
How it was run: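 Ba/F3-FGFR1 cells (20000/well) were treated with compound (10 μM–0.1 nM) for 24 h at 37 °C. Alamar Blue was then added for 4 h, with fluorescence read at ex 540/em 590 nm to give IC50/pIC50. A counterscreen was run with 10 ng/ml murine IL3.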

[2] = molecular target: Ba/F3-FGFR4-transfected cells (Homo sapiens, UniProt P22455); experiment: Ba/F3-FGFR4 cellular proliferation assay, Alamar Blue; format: cell-based; settings: 24 hours
Chain of Ba/F3-FGFR4-transfected cells (P22455 whole entry, change not shown): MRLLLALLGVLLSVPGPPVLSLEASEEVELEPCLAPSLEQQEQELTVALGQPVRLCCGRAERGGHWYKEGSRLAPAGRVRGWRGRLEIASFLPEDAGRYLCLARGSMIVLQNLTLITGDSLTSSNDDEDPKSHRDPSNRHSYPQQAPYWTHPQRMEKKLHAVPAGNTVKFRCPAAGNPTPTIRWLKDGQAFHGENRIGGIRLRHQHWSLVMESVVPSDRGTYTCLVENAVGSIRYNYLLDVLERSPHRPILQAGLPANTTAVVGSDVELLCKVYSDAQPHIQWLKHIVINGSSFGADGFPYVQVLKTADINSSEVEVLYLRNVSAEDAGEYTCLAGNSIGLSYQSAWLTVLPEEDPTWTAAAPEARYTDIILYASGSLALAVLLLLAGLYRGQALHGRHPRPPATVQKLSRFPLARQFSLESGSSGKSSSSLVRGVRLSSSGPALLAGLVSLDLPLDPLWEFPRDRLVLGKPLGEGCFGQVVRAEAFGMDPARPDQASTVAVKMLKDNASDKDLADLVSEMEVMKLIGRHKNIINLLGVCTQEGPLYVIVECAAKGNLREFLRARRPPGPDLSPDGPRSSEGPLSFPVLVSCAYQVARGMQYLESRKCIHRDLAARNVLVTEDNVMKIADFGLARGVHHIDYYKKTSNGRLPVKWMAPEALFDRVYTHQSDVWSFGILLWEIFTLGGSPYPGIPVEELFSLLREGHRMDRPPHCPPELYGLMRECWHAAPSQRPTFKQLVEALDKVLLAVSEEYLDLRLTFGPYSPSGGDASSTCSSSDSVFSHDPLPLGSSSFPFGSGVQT
How it was run: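 Ba/F3 cells transfected with human FGFR4, 20000 per well in phenol red-free RPMI-1640 with 10% FBS, exposed to compound (10 μM to 0.1 nM) for 24 h at 37 °C. Viability by Alamar Blue (resazurin), 4 h, fluorescence ex 540/em 590 nm; IC50 and pIC50 calculated.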

FGFR2 (h) = FGFR2 (h) (Homo sapiens, UniProt P21802); experiment: FGFR2 (enzymatic assay), TR-FRET; format: biochemical; settings: 60 min, pIC50 = -log IC50 (M), average if tested multiple times
Chain of FGFR2 (h) (P21802 22-821): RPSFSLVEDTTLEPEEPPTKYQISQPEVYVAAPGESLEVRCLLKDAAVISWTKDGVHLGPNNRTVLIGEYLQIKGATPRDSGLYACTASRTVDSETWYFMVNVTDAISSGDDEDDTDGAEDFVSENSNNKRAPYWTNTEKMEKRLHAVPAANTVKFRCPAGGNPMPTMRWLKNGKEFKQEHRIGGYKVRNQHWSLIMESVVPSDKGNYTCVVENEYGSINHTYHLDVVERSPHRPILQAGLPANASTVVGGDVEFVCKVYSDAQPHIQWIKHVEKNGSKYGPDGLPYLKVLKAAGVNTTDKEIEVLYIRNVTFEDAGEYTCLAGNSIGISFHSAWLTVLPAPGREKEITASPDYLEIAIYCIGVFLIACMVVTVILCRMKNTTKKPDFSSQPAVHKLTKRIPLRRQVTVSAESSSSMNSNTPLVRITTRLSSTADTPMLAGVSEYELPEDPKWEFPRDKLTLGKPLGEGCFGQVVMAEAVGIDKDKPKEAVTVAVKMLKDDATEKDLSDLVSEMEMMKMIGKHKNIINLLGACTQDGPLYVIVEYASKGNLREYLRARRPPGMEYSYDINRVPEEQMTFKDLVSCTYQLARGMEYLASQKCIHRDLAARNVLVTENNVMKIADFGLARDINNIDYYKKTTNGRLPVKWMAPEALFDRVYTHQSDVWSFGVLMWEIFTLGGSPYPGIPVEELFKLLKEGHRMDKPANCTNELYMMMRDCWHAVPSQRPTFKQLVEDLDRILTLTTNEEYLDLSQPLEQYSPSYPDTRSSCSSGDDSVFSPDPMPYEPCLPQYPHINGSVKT

[3] = molecular target: T2, Ba/F3-FGFR3-transfected cells (Homo sapiens, UniProt P22607, cells depend on it, form not given); experiment: Ba/F3-FGFR3 (minus IL3 or plus IL3) cellular proliferation assay, Alamar Blue; format: cell-based; settings: minus IL3; 24 hours, Alamar Blue
T2 construct: BAF3-FGFR3 (MIN IL3 Alamar Blue- pIC50); other: minus IL3; 24 hours, Alamar Blue
How it was run: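 Ba/F3-FGFR3 cells (20000 per well) in phenol red-free RPMI-1640 with 10% FBS were exposed to compound (10 μM to 0.1 nM) for 24 h at 37° C. Alamar Blue was then added for 4 h and fluorescence read (ex 540, em 590 nm) to give IC50/pIC50; the counterscreen was run with 10 ng/ml murine IL3.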

FGFR3 (h) = FGFR3 (h) (Homo sapiens, UniProt P22607); experiment: FGFR3 (enzymatic assay), TR-FRET; format: biochemical; settings: 60 min, pIC50 = -log IC50 (M), average if tested multiple times
[4] = molecular target: T3, Ba/F3-KDR-transfected cells (Homo sapiens, UniProt P35968, cells depend on it, form not given); experiment: Ba/F3-KDR (minus IL3 or plus IL3) cellular proliferation assay, Alamar Blue; format: cell-based; settings: minus IL3; 24 hours, Alamar Blue
T3 construct: BAF3-KDR (MIN IL3 Alamar Blue pIC50); other: minus IL3; 24 hours, Alamar Blue
How it was run: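 Ba/F3-KDR cells, 20000 per well, exposed to compounds (10 μM to 0.1 nM) for 24 h at 37°C in RPMI/10% FBS, then Alamar Blue for 4 h; fluorescence ex 540/em 590 nm gives IC50 and pIC50. Counterscreen run with 10 ng/ml murine IL3.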

KDR (h) = KDR (h) (Homo sapiens, UniProt P35968); experiment: KDR (VEGFR2) (enzymatic assay), TR-FRET; format: biochemical; settings: 120 min, pIC50 = -log IC50 (M), average if tested multiple times
Chain of KDR (h) (P35968 20-1356): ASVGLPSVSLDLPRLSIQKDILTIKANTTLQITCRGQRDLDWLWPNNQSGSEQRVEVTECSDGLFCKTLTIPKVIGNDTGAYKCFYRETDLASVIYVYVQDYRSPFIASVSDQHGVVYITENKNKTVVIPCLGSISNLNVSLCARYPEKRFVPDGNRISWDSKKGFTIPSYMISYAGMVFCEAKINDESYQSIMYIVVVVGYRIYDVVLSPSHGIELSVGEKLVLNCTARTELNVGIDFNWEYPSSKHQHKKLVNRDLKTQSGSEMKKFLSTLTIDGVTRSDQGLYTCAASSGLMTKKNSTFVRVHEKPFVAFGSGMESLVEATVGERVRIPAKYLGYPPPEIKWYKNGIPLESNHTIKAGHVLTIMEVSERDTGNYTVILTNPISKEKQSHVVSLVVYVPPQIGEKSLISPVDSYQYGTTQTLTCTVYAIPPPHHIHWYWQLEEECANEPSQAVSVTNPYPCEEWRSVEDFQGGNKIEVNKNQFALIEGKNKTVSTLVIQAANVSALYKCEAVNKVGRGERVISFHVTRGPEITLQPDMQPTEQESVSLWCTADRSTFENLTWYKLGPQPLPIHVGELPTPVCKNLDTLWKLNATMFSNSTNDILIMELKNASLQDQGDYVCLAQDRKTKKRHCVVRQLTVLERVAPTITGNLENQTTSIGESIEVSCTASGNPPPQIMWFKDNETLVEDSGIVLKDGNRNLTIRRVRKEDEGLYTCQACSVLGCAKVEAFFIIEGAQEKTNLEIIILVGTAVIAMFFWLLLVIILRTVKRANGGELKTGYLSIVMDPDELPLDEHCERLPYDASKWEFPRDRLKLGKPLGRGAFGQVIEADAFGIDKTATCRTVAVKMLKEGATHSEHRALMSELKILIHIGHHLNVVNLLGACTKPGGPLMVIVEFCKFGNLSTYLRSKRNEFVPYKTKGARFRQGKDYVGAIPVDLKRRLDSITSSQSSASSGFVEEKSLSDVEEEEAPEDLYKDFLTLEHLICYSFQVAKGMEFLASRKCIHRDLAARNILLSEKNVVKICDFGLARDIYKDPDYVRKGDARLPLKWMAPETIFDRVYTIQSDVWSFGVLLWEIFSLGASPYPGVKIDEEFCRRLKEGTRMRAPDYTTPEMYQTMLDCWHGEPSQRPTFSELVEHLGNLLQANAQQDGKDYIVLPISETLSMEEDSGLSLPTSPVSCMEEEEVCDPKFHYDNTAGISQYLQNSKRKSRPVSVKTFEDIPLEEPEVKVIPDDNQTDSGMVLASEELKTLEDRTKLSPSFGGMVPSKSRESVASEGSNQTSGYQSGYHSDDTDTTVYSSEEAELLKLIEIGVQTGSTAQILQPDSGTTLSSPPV
How it was run: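 Recombinant human KDR (150 ng/ml) phosphorylated 500 nM Btn-Flt3 with 3 μM ATP in HEPES pH 7.5/MnCl2 buffer, 1% DMSO, 120 min at room temperature; EDTA stop with Eu-anti-P-Tyr/SA-XL665 detection, TR-FRET read. IC50 and pIC50 derived from compound concentrations spanning 10 μM to 0.1 nM.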

FGFR4 (h) = FGFR4 (h) (Homo sapiens, UniProt P22455); experiment: FGFR4 (enzymatic assay), TR-FRET; format: biochemical; settings: FGFR 4 pIC50, 5 μM ATP, 60 min; pIC50 = -log IC50 (M); average if tested multiple times
Chain of FGFR4 (h) (P22455 22-802): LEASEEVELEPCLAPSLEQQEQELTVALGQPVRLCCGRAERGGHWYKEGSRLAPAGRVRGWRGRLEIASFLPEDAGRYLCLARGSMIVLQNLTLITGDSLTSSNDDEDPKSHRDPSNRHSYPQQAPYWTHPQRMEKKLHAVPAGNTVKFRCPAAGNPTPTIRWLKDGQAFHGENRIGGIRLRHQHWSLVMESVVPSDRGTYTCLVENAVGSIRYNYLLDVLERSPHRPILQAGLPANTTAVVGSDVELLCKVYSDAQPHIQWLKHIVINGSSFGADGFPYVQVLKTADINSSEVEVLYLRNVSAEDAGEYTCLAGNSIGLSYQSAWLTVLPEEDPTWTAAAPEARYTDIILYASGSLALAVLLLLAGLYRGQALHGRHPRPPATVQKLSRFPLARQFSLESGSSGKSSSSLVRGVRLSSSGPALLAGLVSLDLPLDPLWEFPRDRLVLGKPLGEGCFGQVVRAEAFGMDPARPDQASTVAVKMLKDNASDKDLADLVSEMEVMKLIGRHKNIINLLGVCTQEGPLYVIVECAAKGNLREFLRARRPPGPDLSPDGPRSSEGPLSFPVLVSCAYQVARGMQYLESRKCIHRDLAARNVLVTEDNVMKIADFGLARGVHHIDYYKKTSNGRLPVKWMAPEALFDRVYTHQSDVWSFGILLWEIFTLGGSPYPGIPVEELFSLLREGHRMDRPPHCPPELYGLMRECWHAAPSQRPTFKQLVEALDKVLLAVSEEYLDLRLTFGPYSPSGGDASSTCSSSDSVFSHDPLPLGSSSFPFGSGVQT

[5] = 0.4 μM ATP, read-out: FGFR 2 pIC50 (converted)
[6] = 25 μM ATP, read-out: hFGFR 3 pIC50 (converted)
[7] = 3 μM ATP, read-out: VEGFR KDR pIC50 (converted)

T1 sequence (P11362 whole entry, change not shown): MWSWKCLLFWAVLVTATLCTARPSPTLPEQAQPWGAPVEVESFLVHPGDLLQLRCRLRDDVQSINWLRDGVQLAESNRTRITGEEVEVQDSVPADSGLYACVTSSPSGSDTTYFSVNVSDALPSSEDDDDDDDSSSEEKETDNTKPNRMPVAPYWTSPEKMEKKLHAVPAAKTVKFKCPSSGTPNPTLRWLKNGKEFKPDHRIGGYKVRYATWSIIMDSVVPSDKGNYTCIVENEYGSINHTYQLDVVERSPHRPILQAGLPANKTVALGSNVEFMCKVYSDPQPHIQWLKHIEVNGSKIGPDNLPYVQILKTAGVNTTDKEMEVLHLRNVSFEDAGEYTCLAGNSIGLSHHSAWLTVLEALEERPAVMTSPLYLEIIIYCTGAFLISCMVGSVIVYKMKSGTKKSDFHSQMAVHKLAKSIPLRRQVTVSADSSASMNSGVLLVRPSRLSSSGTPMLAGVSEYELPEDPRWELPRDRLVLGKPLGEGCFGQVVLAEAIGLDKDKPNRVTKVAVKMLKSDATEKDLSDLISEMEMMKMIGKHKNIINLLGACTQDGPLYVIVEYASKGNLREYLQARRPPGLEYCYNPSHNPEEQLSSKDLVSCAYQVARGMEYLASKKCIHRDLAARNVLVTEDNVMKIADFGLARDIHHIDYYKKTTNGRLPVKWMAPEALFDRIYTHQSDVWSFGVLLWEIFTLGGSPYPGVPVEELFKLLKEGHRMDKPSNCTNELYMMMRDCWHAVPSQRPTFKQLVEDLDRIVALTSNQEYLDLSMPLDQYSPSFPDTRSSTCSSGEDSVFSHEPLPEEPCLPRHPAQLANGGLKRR

| Structure (SMILES) | BAF3-FGFR1 (MIN IL3 pIC50) [1] | BAF3-FGFR 4 (pIC50) [2] | IC50 (FGFR2 (h); [5]) | BAF3-FGFR3 (MIN IL3 Alamar Blue- pIC50) [3] | IC50 (FGFR3 (h); [6]) | BAF3-KDR (MIN IL3 Alamar Blue pIC50) [4] | IC50 (KDR (h); [7]) | IC50 (FGFR4 (h)) | IC50 (FGFR2 (h); FGFR 2 pIC50, 0.4 μM ATP) | IC50 (FGFR3 (h); hFGFR 3 pIC50, 25 μM ATP) | IC50 (KDR (h); VEGFR KDR pIC50, 3 μM ATP) |
| --- | --- | --- | --- | --- | --- | --- | --- | --- | --- | --- | --- |
| COc1cc(OC)cc(N(CCNC(C)C)c2ccc3ncc(-c4cnn(CCS(C)(=O)=O)c4)cc3c2)c1 [Compound 14] | 7.2 | 6.7 | 5.25e-09 M | ~6.95 | 3.47e-09 M | 5.45 | 9.55e-08 M | 7.41e-09 M | – | – | – |
| COc1cc(OC)cc(N(CC#Cc2nccc(OC)n2)c2ccc3ncc(-c4cnn(C)c4)cc3c2)c1 [Compound 16] | >8 | 8.21 | 1.55e-08 M | >8 | 1.35e-08 M | <5 | 8.91e-07 M | 3.72e-08 M | – | – | – |
| COc1cc(OC)cc(N(CC#Cc2ncccc2OC)c2ccc3ncc(-c4cnn(C)c4)cc3c2)c1 [Compound 17] | 7.35 | 6.98 | 1.2e-07 M | 7.63 | 5.89e-08 M | <5 | > 1e-06 M | 2.75e-07 M | – | – | – |
| COc1cc(OC)cc(N(Cc2ncc[nH]2)c2ccc3ncc(-c4cnn(C)c4)cc3c2)c1 [Compound 18] | 6.88 | 6.57 | 2.51e-09 M | 7.22 | 1.26e-09 M | 5.01 | 1.15e-07 M | 4.79e-09 M | – | – | – |
| COc1cc(OC)cc(N(CCCN2CCCO2)c2ccc3ncc(-c4cnn(C)c4)cc3c2)c1 [Compound 19] | 6.32 | 5.71 | – | 6.26 | – | 5.1 | – | 6.03e-08 M | 1.15e-08 M | 5.62e-09 M | 1e-07 M |
| COc1cc(OC)cc(N(CCNC(C)C)c2ccc3ncc(-c4cn[nH]c4)cc3c2)c1 [Compound 21] | 7.55 | 6.79 | 2.57e-09 M | 7.57 | 3.39e-09 M | 5.49 | 1.02e-07 M | 5.37e-09 M | – | – | – |
| COc1cc(OC)cc(N(CCNC(C)C)c2ccc3ncc(-c4cnn(C5CCCCO5)c4)cc3c2)c1 (stereo not shown) [Compound 22] | 7.85 | ~7.11 | 3.89e-09 M | 7.78 | 2.4e-09 M | 5.79 | 4.37e-08 M | 4.37e-09 M | – | – | – |
| COc1cc(OC)c(F)c(N(CC#Cc2ncccc2OC)c2ccc3ncc(-c4cnn(C)c4)cc3c2)c1 [Compound 26] | 7.95 | 7.77 | 1.05e-08 M | 8.17 | – | 5.11 | 4.27e-07 M | 1.26e-08 M | – | 4.9e-09 M | – |
| COc1cccnc1C#CCN(c1ccc2ncc(-c3cnn(C)c3)cc2c1)c1c(F)c(OC)cc(OC)c1F [Compound 27] | 8.715 | 8.18 | 5.62e-09 M | 8.22 | 2.37e-09 M | 5.335 | 3.76e-08 M | 3.13e-09 M | – | – | – |
| CNCCN(c1ccc2ncc(-c3cnn(C)c3)cc2c1)c1c(F)c(OC)cc(OC)c1F [Compound 43] | 8.68 | ~8.02 | 2.45e-09 M | ~8 | 2.4e-09 M | 6.51 | 1.48e-08 M | 2.63e-09 M | – | – | – |
| COc1cc(OC)cc(N(CCCN2CCCC2CNS(=O)(=O)C(F)(F)F)c2ccc3ncc(-c4cnn(C)c4)cc3c2)c1 (stereo not shown) [Compound 47] | ~8.03 | 7.44 | 3.89e-09 M | 8.46 | 1.32e-09 M | 6.44 | 1.17e-08 M | 2.19e-09 M | – | – | – |
| COc1cc(OC)cc(N(CC#Cc2nccn2C)c2ccc3ncc(-c4cnn(C)c4)cc3c2)c1 [Compound 48] | 7.24 | 7.17 | 1.45e-08 M | 7.62 | 7.94e-09 M | 5.02 | 2.88e-07 M | 3.16e-08 M | – | – | – |
| COc1cc(OC)cc(N(Cc2ncc[nH]2)c2ccc3ncc(-c4ccncc4)cc3c2)c1 [Compound 57] | 6.75 | 6.16 | 2.29e-09 M | ~6.77 | 1.05e-09 M | <5 | 4.57e-07 M | 4.47e-09 M | – | – | – |
| COc1cc(OC)cc(N(Cc2nccn2S(=O)(=O)N(C)C)c2ccc3ncc(-c4ccncc4)cc3c2)c1 [Compound 58] | ~5.86 | <5 | 1.29e-08 M | 5.57 | 2.75e-08 M | <5 | 7.24e-07 M | 1.86e-07 M | – | – | – |
| COc1cc(OC)cc(N(Cc2ncc[nH]2)c2ccc3ncc(-c4cccnc4)cc3c2)c1 [Compound 59] | 6.36 | 6.02 | 3.02e-09 M | 6.50 | 1.74e-09 M | <5 | 8.51e-07 M | 7.41e-09 M | – | – | – |
| COc1cc(OC)cc(N(Cc2nccn2S(=O)(=O)N(C)C)c2ccc3ncc(-c4cccnc4)cc3c2)c1 [Compound 60] | 5.37 | <5 | 1.95e-08 M | 5.22 | 3.16e-08 M | <5 | > 1e-06 M | 2.51e-07 M | – | – | – |
| COc1cc(Nc2ccc3ncc(-c4cnn(C5CCCCO5)c4)cc3c2)cc(OC)c1 (stereo not shown) [Int. 8] | 5.29 | 5.04 | 3.72e-08 M | ~5.53 | 3.72e-08 M | <5 | 3.16e-07 M | 4.9e-07 M | – | – | – |
